Here are results for seven compounds from patent publication US20090143285A1, “TARGET PROTEIN AND TARGET GENE FOR DRUG DISCOVERY AND SCREENING METHOD” (REVERSE PROTEOMICS RESEARCH INSTITUTE CO., LTD., priority 2005, published 2009).

Entries after “also recorded” stand apart in the source; their conditions may differ.

Experiment [1] concerns FLJXXXXX-derived proteins. Put plainly: SEC/MS spin column interaction analysis of FLJXXXXX-derived proteins and various compounds (Tables 30-1 to 30-4). To be noted: SEC spin column filtrate, spectral intensity increased with doses of compound and protein. The experiment is classed as binding, human.
Experiment [2] has as its target T1, FLJ41991-derived protein (Homo sapiens, UniProt P57764, E293G).
T1 construct: His-tag (N); made in house; host or cells: Escherichia coli BL21star(DE3)pLysS (pDEST17)
T1 sequence (P57764 265-484 E293G): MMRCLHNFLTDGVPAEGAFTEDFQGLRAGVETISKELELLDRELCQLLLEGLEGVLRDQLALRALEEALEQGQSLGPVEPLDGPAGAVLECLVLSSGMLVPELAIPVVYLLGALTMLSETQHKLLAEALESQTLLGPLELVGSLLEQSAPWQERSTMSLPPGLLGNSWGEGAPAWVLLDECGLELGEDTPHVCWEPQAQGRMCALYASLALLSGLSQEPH
Put plainly: SEC/MS interaction analysis, FLJ41991-derived protein (GSDMDC1). Type of experiment: binding. The source says:
(§1) To analyze the interactions between commonly used drugs and proteins expressed from human full-length cDNA clones while keeping both the proteins and the compounds in non-modified, non-immobilized state, size exclusion chromatography (SEC) and mass analysis were used in combination. The specific procedures are shown below.
(§2) The compound-protein mixture prepared in step 1 was subjected to chromatography using an SEC column, the compound and the protein were separated by SEC, and the compound that interacted with the bound compound or protein contained in the protein fraction was analyzed using a mass analyzer.
(§3) Protein concentrations were measured using BCA Protein Assay (PIERCE), in consideration of the purity calculated by SDS-PAGE.
(§4) Mass analysis was performed using LCQ DECA XP (Thermoelectron) or Q-TOF micro (Micromass), equipped with an ESI probe. The LC pump used was Agilent 1100 (Yokogawa Analytical Systems), and the autosampler used was HTC-PAL (CTC Analytics) equipped with a cooling stacker. The SEC column used was a micro-LC column or a 384-well spin column. […]
(§5) In the 384-well spin column method, Unifilter 100 (Whatman), packed with 10 μL (dry volume) of Bio-Gel P6 (BIO-RAD) and swollen with milliQ water, was used as the SEC column. […] The SEC spin column was mounted on an acetonitrile-aliquoted 384-well U-bottom plate and centrifuged; the SEC spin column filtrate, which is a protein fraction, was recovered in 50% acetonitrile. The protein precipitate produced by the acetonitrile was removed via centrifugation and filtration for deproteinization; the resulting filtrate was concentrated by centrifugal concentration and re-dissolved in 10 μL of 50% methanol to obtain a mass analysis sample. The mobile phase supplied to the mass analyzer was 0.1% formic acid/50% methanol solution in the positive ion mode, and 0.1% ammonia/50% methanol solution in the negative ion mode; these mobile phases were used at a flow rate of 40 μL/min. 2-μL of mass analysis samples were injected using an autosampler at 2-minute intervals; the mass spectral intensity of the compound was measured to retrieve the spectral intensity of the pharmaceutical compound contained in the SEC spin column filtrate (protein fraction eluted from SEC).

In experiment [3] the target is T2, FLJ10420-derived protein (Homo sapiens, UniProt Q9NVZ3, T157A).
T2 construct: His-tag (N); made in house; host or cells: Escherichia coli BL21star(DE3)pLysS
T2 sequence (Q9NVZ3 1-263 T157A): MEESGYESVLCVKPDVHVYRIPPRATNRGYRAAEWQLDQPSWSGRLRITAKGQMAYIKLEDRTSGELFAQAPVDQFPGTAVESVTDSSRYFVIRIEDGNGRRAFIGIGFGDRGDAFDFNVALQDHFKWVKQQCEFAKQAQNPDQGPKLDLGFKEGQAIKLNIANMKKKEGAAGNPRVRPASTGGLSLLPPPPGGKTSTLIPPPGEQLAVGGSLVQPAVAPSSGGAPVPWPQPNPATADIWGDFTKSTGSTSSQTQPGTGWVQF
Put plainly: SEC/MS interaction analysis, FLJ10420-derived protein (hypothetical protein FLJ10420). Type of experiment: binding.
Description: as §1, §2, §3, §4, §5

The target in experiment [4] is T3, FLJ38531-derived protein (Homo sapiens, UniProt Q9BVM4).
T3 construct: His-tag (N); made in house; host or cells: Escherichia coli BL21star(DE3)pLysS
T3 sequence (Q9BVM4 1-153): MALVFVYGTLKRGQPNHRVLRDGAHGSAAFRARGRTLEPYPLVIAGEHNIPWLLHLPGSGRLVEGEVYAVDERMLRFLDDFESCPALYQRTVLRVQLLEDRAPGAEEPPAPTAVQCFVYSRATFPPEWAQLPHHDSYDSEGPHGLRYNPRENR
Put plainly: SEC/MS interaction analysis, FLJ38531-derived protein (hypothetical protein BC004360). The note with it: spin column method; doses of both compound and protein varied. The experiment is classed as binding.
Description: as §1, §2, §3, §4, §5

In experiment [5] the target is T4, FLJ12857-derived protein (Homo sapiens, UniProt O75781, T107A).
T4 construct: His-tag (N); made in house; host or cells: Escherichia coli BL21star(DE3)pLysS
T4 sequence (O75781 74-343 isoform O75781-2 T107A): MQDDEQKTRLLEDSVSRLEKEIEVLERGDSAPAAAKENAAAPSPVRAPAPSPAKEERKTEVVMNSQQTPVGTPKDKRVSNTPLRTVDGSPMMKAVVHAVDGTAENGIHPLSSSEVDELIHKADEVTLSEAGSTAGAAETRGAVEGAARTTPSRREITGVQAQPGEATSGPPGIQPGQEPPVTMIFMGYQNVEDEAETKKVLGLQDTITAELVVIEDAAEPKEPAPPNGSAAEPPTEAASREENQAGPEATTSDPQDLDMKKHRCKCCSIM
The experiment is described as follows: SEC/MS interaction analysis, FLJ12857-derived protein (Paralemmin; PALM). Type of experiment: binding.
Description: as §1, §2, §3, §4, §5

Experiment [6] concerns the target FLJ40298-derived protein (Homo sapiens, UniProt Q8N5S3, P254L/R275T). The experiment is described as follows: SEC/MS interaction analysis, FLJ40298-derived protein (hypothetical protein FLJ40298). Type of experiment: binding.
Description: as §1, §2, §3, §4, §5

[7] abbreviates: compound 12.5 μM, protein 10 μM.
Where [8] appears, read: compound 12.5 μM, protein 25 μM.
Setting [9] is: compound 62.5 μM, protein 10 μM.
Setting [10] is: compound 62.5 μM, protein 25 μM.
Where [11] appears, read: spin column method, doses of both compound and protein varied.

Sequence of FLJ40298-derived protein (Q8N5S3 122-287 P254L/R275T): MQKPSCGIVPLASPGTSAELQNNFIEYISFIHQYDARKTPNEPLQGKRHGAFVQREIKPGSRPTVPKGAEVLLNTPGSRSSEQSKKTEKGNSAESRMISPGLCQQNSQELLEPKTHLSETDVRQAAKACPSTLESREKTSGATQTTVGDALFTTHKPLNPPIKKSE

As for `CCN(CC)CCCC(C)Nc1c2ccc(Cl)cc2nc2ccc(OC)cc12` (stereo not drawn) [quinacrine], the “FLJ No of the derived protein with which the compound was judged to exhibit a concentration-dependent interaction” value (from here on “FLJ No of the derived protein”) in experiment [1] is listed as “FLJ37909; also recorded: FLJ41991”. Besides, the “spectrum intensity of the compound in the SEC spin column filtrate” value in experiment [2] (compound 12.5 μM, protein 0 μM) is given as 36421; in experiment [2] (compound 12.5 μM, protein 5 μM) it was 77607; in experiment [2] (setting [7]), 225680; in experiment [2] (setting [8]), 439131; in experiment [2] (compound 25 μM, protein 0 μM), 40978; in experiment [2] (compound 25 μM, protein 5 μM), 125609. Further, the “spectrum intensity of the compound in the SEC spin column filtrate” value worked out at 481486 in experiment [2] (compound 25 μM, protein 10 μM); 457713 in experiment [2] (compound 25 μM, protein 25 μM); 123977 in experiment [2] (compound 62.5 μM, protein 0 μM); 598920 in experiment [2] (compound 62.5 μM, protein 5 μM); 1080431 in experiment [2] (setting [9]); 1854355 in experiment [2] (setting [10]). In addition, in experiment [2] (setting [11]), the “interaction judged from spectrum intensity of the compound in the SEC spin column filtrate (protein fraction eluted from SEC)” value is “concentration-dependent interaction”.
Take `COc1ccc(C(=O)NCc2cccnc2)cc1C(=O)NCc1cccnc1` [picotamide]: the “FLJ No of the derived protein” value in experiment [1] is recorded as “FLJ10420”. Besides, the “spectrum intensity of the compound in the SEC spin column filtrate” value in experiment [3] (compound 12.5 μM, protein 0 μM) is recorded as 412892; in experiment [3] (compound 12.5 μM, protein 5 μM) it was 323916; in experiment [3] (setting [7]), 294069; in experiment [3] (compound 12.5 μM, protein 15 μM) it was 237571; in experiment [3] (compound 25 μM, protein 0 μM), 441470; in experiment [3] (compound 25 μM, protein 5 μM), 490309. For the same compound, the “spectrum intensity of the compound in the SEC spin column filtrate” value in experiment [3] (compound 25 μM, protein 10 μM) stood at 647010; in experiment [3] (compound 25 μM, protein 15 μM), 496587; in experiment [3] (compound 62.5 μM, protein 0 μM) it was 841101; in experiment [3] (compound 62.5 μM, protein 5 μM) it was 1376939; in experiment [3] (setting [9]), 1450464; in experiment [3] (compound 62.5 μM, protein 15 μM), 1862334. In experiment [3] (setting [11]), the “interaction judged from spectrum intensity of the compound in the SEC spin column filtrate (protein fraction eluted from SEC)” value is “concentration-dependent interaction”.
On to `CCn1cc(C(=O)O)c(=O)c2ccc(C)nc21` [nalidixic acid], for which the “interaction judged from spectrum intensity of the compound in the SEC spin column filtrate (protein fraction eluted from SEC)” value in experiment [4] was “concentration-dependent interaction”. The “FLJ No of the derived protein” value in experiment [1] is recorded as “FLJ38531”.
Take `CC(=O)O[C@H]1C[C@@H]2CC[C@@H]3[C@H](CC[C@@]4(C)[C@H]3C[C@H]([N+]3(C)CCCCC3)[C@@H]4OC(C)=O)[C@@]2(C)C[C@@H]1[N+]1(C)CCCCC1` [pancuronium bromide]: the “spectrum intensity of the compound in the SEC spin column filtrate” value in experiment [5] (compound 12.5 μM, protein 0 μM) worked out at 50699; in experiment [5] (compound 12.5 μM, protein 5 μM), 65210; in experiment [5] (setting [7]) it was 163033; in experiment [5] (setting [8]), 193021; in experiment [5] (compound 25 μM, protein 0 μM), 170740; in experiment [5] (compound 25 μM, protein 5 μM), 491313. Also, the “spectrum intensity of the compound in the SEC spin column filtrate” value in experiment [5] (compound 25 μM, protein 10 μM) came out at 747644; in experiment [5] (compound 25 μM, protein 25 μM) it was 725722; in experiment [5] (compound 62.5 μM, protein 0 μM), 1417386; in experiment [5] (compound 62.5 μM, protein 5 μM), 1918601; in experiment [5] (setting [9]), 2231237; in experiment [5] (setting [10]) it was 2511342. Moreover, the “interaction judged from spectrum intensity of the compound in the SEC spin column filtrate (protein fraction eluted from SEC)” value in experiment [5] (setting [11]) is listed as “concentration-dependent interaction”. The “FLJ No of the derived protein” value in experiment [1] is on record as “FLJ12857”.
With `CCCCOc1cc(C(=O)OCCN(CC)CC)ccc1N` [benoxinate], the “spectrum intensity of the compound in the SEC spin column filtrate” value in experiment [6] (compound 12.5 μM, protein 0 μM) came out at 202235; in experiment [6] (compound 12.5 μM, protein 5 μM), 285949; in experiment [6] (setting [7]), 263958; in experiment [6] (setting [8]) it was 299357; in experiment [6] (compound 25 μM, protein 0 μM), 557220; in experiment [6] (compound 25 μM, protein 5 μM) it was 1519215. Moreover, the “spectrum intensity of the compound in the SEC spin column filtrate” value stood at 552560 in experiment [6] (compound 25 μM, protein 10 μM); 583103 in experiment [6] (compound 25 μM, protein 25 μM); 815144 in experiment [6] (compound 62.5 μM, protein 0 μM); 225597 in experiment [6] (compound 62.5 μM, protein 5 μM); 1509221 in experiment [6] (setting [9]); 2027848 in experiment [6] (setting [10]). Moreover, in experiment [6] (setting [11]), the “interaction judged from spectrum intensity of the compound in the SEC spin column filtrate (protein fraction eluted from SEC)” value is recorded as “concentration-dependent interaction”. The “FLJ No of the derived protein” value in experiment [1] is recorded as “FLJ40298”.
As to `NCCCC[C@H](N[C@@H](CCc1ccccc1)C(=O)O)C(=O)N1CCC[C@H]1C(=O)O` [lisinopril], in experiment [1], the “FLJ No of the derived protein” value was “FLJ40760”.
Same read-out and setting: the result for `Cc1cc(C(C)(C)CC(C)(C)C)ccc1OCCOCC[N+](C)(C)Cc1ccccc1.[Cl-]` [methylbenzethonium chloride] reads “FLJ20571; also recorded: FLJ35353”.
